Experimental data reported in ChEMBL document CHEMBL1201862, “PubChem BioAssay data set” (2004).
The source made the active and inactive calls.

How the values were obtained:
Troponin, cardiac muscle = Troponin, cardiac muscle (Homo sapiens, UniProt P19429+P45379+P63316); assay: Fluorescence-based biochemical high throughput dose response assay for activators of the calcium sensitivity of cardiac Regulated Thin Filaments (RTF). [Related pubchem assays (depositor defined):AID493008, AID493018, AID504382, AID504383]; type: protein-complex assay
[1] = reduction of Shn3 3'UTR-driven luciferase in osteoblasts – cell-based, Clone20 osteoblasts, firefly luciferase, cherry-picked, dose response (AID 624132); type: functional;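 note: firefly luciferase luminescence from reporter carrying the Shn3 3'UTR in osteoblasts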
Exodeoxyribonuclease V = target: T1, Exodeoxyribonuclease V (Escherichia coli (strain K12), UniProt P04993+P07648+P08394); assay: RecBCD inhibition via phage-restricted bacterial growth – absorbance, V66 E. coli, mutant T4 phage, counter-screen for AddAB inhibitor project, dose response (AID 492957); type: functional, cell-based, Escherichia coli str. K-12 substr. MG1655
T1 sequence (P04993 whole entry): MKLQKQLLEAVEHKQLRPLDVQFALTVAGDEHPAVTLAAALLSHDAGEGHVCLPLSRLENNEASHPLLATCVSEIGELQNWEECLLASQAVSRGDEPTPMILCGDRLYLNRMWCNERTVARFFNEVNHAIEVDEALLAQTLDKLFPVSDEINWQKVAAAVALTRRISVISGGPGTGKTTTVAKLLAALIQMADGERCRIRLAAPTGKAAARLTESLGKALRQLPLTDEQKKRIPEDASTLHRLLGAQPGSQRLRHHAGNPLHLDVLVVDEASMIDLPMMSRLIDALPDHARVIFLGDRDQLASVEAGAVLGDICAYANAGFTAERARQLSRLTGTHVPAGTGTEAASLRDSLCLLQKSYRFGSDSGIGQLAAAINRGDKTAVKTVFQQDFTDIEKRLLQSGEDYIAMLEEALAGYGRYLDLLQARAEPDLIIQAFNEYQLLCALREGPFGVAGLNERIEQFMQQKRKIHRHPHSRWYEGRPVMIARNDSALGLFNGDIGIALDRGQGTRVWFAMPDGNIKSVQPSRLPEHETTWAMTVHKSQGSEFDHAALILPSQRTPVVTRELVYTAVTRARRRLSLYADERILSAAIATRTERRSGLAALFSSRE
T1 sequence (P07648 whole entry): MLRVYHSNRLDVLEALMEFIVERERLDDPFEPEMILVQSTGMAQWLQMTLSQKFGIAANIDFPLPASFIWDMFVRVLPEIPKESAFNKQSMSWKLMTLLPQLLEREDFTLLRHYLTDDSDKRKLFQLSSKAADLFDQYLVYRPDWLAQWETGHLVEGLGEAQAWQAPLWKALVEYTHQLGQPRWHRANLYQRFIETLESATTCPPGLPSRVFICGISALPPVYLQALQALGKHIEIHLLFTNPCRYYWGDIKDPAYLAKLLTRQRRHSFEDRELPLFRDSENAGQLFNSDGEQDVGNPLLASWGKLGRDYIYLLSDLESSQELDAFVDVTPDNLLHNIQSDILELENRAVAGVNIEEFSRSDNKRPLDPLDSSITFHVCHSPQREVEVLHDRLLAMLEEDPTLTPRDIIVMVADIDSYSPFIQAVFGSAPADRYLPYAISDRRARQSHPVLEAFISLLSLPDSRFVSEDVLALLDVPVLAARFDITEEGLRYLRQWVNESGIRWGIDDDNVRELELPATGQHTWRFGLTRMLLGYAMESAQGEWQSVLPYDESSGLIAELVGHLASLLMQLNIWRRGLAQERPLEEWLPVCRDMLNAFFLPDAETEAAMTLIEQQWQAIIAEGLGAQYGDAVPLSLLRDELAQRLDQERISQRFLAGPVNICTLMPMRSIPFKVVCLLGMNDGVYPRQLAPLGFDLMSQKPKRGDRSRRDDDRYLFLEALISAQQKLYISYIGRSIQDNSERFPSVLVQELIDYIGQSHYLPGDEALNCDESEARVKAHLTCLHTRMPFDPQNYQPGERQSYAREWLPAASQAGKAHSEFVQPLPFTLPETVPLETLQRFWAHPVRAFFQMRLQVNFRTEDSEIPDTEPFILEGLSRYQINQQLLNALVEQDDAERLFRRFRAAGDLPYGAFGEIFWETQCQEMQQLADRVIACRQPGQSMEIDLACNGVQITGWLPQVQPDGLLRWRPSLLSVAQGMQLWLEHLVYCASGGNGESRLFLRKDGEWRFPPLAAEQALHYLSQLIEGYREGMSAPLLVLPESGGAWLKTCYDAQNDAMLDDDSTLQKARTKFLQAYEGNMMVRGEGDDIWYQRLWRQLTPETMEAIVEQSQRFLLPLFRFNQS
T1 sequence (P08394 whole entry): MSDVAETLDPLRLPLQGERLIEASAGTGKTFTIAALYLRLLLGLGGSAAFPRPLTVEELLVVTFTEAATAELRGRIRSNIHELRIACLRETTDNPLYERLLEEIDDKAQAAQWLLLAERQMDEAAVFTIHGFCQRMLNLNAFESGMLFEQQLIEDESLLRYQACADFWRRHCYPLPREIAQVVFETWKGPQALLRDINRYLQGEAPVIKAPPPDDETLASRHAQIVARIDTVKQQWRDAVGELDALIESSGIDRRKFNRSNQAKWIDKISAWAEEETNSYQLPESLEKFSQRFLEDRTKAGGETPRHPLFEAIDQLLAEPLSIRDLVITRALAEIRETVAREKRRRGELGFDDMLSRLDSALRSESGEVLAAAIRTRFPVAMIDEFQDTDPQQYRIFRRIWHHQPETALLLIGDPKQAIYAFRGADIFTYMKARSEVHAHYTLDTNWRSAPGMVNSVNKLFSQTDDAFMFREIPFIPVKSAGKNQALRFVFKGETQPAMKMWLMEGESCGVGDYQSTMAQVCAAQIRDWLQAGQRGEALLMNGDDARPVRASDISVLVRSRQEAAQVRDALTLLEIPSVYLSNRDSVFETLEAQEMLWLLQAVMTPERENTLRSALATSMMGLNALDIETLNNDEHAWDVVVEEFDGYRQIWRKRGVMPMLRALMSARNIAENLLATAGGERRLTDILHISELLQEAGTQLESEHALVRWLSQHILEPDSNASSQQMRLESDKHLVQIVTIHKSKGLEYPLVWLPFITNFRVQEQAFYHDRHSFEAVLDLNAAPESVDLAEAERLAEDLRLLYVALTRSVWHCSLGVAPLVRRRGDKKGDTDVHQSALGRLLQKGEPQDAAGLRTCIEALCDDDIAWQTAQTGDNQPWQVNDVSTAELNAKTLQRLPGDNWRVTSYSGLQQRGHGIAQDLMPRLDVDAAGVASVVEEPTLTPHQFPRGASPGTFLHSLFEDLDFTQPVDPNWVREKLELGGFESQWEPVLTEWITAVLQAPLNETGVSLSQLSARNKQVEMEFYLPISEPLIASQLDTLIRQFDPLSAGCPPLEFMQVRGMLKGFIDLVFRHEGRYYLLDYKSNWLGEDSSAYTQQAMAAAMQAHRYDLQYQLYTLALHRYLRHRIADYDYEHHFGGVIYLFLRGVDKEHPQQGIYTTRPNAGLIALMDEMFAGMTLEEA

SUMO-activating enzyme [2] = target: T2, SUMO-activating enzyme (Homo sapiens, UniProt Q9UBT2); assay: blockers of SAE1/SAE2–UBC9 SUMO transfer – biochemical, HTRF, uHTS, primary screen (AID 2006); type: protein-complex assay
cells [3] = type: functional, cell-based
[4] = Counterscreen for AddAB inhibitors: absorbance-based bacterial cell-based high throughput dose response assay for inhibitors of bacterial viability. [Related pubchem assays (depositor defined):AID435030, AID449728, AID449731, AID488942, AID488955, AID488956]; type: functional
INS1 = assay: INS-1E survival protection against cytokine death – cell-based, luminescence, retest, dose response (AID 449756); type: functional; settings: Rattus norvegicus;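 note: cell death triggered by IL-1 beta plus TNF-alpha plus IFN-gamma mixture; protective hits raise ATP signal compared with cytokine alone wells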
cells [5] = type: functional, cell-based; remark: listed apart in the source
[6] = loss of viability in HepG2 cells – cell-based, CellTiter-Glo, cherry-picked, cytotoxicity control for Shn3 inhibitor project, dose response (AID 624134); type: functional
[7] = non-specific 3'UTR reporter inhibition in Clone20-Shn3RL – cell-based, Renilla luciferase, cherry-picked, counter-screen for Shn3 inhibitor project, dose response (AID 624133); type: functional
SUMO-activating enzyme [8] = target: T2, SUMO-activating enzyme; assay: blockers of UBC9-mediated SUMO conjugation – biochemical, AlphaScreen, SUMOylation inhibitor project, confirmation (AID 2018); type: functional
[9] = target: T3, 1-acylglycerol-3-phosphate O-acyltransferase ABHD5/Perilipin-5 (Homo sapiens, UniProt Q00G26+Q8WTS1); assay: Luminescence-based biochemical high throughput dose response assay for inhibitors of the interaction of the lipase co-activator protein, abhydrolase domain containing 5 (ABHD5) with perilipin-5 (MLDP; PLIN5) (2K validation set). [Related pubchem assays (depositor defined):AID493035, AID493241]
T3 sequence (Q00G26 whole entry): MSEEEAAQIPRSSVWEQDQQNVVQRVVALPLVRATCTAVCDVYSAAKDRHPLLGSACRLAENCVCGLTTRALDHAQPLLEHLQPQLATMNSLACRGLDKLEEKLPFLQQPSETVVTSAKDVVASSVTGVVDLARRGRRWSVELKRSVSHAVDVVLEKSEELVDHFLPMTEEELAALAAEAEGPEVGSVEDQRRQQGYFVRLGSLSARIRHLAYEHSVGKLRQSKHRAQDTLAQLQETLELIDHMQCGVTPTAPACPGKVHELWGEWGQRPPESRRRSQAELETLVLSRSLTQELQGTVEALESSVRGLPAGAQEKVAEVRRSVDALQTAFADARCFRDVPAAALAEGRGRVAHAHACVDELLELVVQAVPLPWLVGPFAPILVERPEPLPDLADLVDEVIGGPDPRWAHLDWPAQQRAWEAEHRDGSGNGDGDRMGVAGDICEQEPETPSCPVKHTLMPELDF
T3 sequence (Q8WTS1 whole entry): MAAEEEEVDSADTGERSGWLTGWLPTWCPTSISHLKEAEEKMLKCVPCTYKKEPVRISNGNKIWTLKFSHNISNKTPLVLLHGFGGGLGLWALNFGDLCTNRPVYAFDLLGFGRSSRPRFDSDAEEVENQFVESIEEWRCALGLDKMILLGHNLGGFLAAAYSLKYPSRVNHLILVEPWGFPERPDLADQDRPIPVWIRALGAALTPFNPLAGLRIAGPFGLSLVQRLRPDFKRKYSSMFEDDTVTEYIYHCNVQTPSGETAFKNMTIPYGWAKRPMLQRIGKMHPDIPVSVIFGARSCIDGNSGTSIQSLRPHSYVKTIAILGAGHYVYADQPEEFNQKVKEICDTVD

Perilipin-1/ABHD5 = target: T4, Perilipin-1/ABHD5 (Homo sapiens, UniProt O60240+Q8WTS1); assay: Luminescence-based biochemical high throughput dose response assay for inhibitors of the interaction of the lipase co-activator protein, abhydrolase domain containing 5 (ABHD5) with perilipin-1 (PLIN1) (2K validation set). [Related pubchem assays (depositor defined):AID493027, AID493057]
T4 sequence (Q8WTS1 whole entry): T3 sequence (Q8WTS1 whole entry)
T4 sequence (O60240 whole entry): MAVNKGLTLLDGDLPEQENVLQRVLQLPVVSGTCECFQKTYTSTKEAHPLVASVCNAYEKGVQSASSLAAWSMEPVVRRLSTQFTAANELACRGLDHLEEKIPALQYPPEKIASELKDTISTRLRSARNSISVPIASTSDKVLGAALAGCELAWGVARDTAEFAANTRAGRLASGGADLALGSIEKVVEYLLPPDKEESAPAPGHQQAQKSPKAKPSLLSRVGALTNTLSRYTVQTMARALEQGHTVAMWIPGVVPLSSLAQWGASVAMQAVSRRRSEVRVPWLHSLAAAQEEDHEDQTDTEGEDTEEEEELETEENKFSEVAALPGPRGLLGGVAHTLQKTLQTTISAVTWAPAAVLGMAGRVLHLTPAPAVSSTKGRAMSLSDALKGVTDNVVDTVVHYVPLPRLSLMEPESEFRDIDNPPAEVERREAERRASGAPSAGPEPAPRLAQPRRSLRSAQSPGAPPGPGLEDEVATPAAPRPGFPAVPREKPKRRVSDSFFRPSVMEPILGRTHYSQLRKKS

[10] = target: Intestinal-type alkaline phosphatase (Homo sapiens, UniProt P09923); assay: Dose Response confirmation of uHTS hits from a small molecule inhibitors of human intestinal alkaline phosphatase via a luminescent assay. [Related pubchem assays (depositor defined):AID2544, AID2574]; type: functional
[11] = target: T5, Voltage-gated N-type calcium channel alpha-1B subunit/Amyloid beta A4 precursor protein-binding family A member 1 (Homo sapiens, UniProt Q00975+Q02410); type: protein assay
[12] = target: T5, Voltage-gated N-type calcium channel alpha-1B subunit/Amyloid beta A4 precursor protein-binding family A member 1; type: protein assay; remark: listed apart in the source

T5 sequence (Q00975 whole entry): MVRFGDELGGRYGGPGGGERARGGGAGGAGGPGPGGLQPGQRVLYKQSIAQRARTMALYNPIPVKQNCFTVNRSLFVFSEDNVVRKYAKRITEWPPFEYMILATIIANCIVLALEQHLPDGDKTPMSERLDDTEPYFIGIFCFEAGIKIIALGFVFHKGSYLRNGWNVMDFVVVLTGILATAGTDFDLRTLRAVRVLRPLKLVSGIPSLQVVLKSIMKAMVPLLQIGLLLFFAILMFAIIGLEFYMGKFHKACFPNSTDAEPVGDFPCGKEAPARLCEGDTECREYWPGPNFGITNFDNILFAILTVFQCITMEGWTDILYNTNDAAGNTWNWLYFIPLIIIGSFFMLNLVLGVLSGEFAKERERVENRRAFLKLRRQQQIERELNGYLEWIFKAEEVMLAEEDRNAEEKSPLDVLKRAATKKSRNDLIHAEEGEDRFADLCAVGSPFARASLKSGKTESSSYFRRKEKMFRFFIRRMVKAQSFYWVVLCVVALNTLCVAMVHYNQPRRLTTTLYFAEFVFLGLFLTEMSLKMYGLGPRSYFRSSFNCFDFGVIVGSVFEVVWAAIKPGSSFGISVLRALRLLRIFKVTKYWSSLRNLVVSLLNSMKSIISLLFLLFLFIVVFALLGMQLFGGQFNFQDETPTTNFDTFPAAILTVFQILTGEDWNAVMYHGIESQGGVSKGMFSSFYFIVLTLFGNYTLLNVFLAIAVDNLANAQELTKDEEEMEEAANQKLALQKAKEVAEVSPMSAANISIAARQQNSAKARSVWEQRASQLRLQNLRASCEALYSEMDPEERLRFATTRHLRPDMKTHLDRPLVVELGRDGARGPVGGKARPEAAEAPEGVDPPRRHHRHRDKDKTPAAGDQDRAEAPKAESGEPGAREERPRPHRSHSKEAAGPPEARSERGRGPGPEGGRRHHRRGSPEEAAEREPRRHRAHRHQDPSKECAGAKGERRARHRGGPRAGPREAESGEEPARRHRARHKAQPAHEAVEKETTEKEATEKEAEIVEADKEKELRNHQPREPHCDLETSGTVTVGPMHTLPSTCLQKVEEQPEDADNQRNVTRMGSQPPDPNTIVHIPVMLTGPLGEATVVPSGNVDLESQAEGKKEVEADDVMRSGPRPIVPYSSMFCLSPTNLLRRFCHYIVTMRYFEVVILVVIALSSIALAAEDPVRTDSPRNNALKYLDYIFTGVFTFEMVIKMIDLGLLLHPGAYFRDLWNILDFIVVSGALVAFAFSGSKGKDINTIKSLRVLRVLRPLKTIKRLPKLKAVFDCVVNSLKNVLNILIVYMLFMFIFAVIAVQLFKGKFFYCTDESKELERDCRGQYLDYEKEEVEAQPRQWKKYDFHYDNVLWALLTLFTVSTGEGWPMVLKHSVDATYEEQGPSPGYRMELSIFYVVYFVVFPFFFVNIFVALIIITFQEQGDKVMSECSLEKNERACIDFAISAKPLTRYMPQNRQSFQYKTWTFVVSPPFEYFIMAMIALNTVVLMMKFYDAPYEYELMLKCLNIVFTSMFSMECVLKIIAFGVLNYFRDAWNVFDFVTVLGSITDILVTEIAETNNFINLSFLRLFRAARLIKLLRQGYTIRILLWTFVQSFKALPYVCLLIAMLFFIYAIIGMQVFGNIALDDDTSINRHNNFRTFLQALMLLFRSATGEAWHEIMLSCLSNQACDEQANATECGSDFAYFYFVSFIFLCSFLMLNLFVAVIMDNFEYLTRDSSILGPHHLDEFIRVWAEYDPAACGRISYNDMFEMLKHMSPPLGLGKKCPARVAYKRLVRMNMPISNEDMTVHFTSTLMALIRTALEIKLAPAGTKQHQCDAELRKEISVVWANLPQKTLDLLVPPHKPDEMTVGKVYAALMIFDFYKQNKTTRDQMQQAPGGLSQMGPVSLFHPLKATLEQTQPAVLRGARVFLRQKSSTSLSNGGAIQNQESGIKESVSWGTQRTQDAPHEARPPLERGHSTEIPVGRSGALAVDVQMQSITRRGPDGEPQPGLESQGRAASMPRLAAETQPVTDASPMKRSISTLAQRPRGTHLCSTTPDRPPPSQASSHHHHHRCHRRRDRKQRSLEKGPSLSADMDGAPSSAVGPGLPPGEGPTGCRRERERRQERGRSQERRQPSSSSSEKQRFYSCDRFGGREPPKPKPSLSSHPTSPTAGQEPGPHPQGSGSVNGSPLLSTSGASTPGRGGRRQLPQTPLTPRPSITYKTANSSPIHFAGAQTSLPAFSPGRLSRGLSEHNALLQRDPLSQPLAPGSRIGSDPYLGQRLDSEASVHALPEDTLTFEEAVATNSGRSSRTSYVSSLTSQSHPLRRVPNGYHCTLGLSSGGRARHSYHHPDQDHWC
T5 sequence (Q02410 whole entry): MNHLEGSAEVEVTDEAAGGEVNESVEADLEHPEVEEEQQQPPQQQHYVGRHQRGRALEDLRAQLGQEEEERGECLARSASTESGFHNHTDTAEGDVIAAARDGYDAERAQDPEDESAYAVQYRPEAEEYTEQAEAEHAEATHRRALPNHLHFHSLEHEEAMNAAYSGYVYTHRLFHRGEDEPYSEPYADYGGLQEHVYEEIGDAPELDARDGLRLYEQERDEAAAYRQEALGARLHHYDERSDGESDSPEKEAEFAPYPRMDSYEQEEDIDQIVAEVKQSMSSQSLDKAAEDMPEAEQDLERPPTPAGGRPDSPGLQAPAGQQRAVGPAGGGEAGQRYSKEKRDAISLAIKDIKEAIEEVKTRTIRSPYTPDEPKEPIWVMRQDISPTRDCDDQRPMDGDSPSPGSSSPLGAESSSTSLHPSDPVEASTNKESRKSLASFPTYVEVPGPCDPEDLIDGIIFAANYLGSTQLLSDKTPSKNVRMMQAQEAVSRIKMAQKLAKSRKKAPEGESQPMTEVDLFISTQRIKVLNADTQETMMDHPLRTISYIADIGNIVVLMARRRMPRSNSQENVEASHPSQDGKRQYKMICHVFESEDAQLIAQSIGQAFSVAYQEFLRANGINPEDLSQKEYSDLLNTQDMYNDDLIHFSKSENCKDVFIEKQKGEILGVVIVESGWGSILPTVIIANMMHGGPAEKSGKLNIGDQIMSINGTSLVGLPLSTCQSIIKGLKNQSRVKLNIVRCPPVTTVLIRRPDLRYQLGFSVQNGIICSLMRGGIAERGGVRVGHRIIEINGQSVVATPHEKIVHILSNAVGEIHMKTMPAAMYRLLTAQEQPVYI
Chain of Intestinal-type alkaline phosphatase (P09923 whole entry): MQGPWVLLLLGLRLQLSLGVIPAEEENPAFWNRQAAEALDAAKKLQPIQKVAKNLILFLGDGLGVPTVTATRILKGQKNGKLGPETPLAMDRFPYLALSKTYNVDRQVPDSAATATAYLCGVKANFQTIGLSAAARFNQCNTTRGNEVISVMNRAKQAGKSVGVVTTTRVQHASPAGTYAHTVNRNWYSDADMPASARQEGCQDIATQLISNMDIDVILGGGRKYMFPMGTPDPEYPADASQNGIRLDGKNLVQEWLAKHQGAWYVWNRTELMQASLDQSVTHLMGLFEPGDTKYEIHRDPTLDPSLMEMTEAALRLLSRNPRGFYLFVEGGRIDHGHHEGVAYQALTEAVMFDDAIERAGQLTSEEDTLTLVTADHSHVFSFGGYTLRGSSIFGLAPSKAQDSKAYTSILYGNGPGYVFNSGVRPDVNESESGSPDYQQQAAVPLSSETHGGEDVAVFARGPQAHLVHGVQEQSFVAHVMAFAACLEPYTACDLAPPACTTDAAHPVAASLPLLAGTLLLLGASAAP
T2 sequence (Q9UBE0 whole entry): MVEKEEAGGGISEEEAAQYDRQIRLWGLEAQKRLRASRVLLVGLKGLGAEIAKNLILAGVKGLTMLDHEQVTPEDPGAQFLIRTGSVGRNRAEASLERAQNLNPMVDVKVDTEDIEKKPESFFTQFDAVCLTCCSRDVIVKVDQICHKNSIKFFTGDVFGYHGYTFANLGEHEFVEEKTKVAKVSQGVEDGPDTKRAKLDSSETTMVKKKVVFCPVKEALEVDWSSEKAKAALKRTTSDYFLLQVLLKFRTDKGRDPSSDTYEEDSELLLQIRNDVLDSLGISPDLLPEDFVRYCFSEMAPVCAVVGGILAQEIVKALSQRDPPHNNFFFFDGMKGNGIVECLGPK
T2 sequence (Q9UBT2 whole entry): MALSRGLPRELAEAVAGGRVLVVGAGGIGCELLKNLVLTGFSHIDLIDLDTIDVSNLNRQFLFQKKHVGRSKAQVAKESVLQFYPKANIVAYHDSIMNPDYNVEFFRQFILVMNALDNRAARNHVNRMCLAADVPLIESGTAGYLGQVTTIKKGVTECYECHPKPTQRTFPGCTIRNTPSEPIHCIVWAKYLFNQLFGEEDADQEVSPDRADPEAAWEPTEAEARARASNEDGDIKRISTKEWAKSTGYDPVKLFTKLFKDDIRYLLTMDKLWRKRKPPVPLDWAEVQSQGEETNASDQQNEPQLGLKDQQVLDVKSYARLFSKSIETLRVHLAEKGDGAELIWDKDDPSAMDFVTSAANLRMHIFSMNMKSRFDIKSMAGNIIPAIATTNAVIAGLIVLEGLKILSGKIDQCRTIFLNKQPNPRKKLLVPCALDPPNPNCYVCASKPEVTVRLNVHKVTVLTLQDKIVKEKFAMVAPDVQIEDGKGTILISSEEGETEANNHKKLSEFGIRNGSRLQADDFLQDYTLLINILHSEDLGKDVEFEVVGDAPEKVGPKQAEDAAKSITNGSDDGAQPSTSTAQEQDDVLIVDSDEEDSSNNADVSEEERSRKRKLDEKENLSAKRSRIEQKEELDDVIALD

## COc1cc(N2CCCC2)c(OC)cc1/C=C1/NC(=S)NC1=O
Troponin, cardiac muscle
  EC50: 1.14 µM (active)

## CCCCC(=O)NC(c1ccccc1Cl)c1ccc2cccnc2c1O (configuration not stated)
[1]
  AC50: 1.12 µM (active)
Exodeoxyribonuclease V
  IC50: > 119 µM (inactive)
SUMO-activating enzyme [2]
  IC50: > 100 µM (inactive)
Cells [3]
  EC50: 8.93 µM (active)
[4]
  IC50: > 119 µM (inactive)
INS1
  AC50: 0.645 µM (active)
Cells [5]
  EC50: > 350 µM (not active)
[6]
  AC50: 3.56 µM (active)
[7]
  AC50: 0.856 µM (active)
SUMO-activating enzyme [8]
  IC50: 9.96 µM (active)

## CSCCC(NC(=O)OC(C)(C)C)C(=O)Oc1ccc2c(=O)c(-c3ccc4c(c3)OCCO4)coc2c1 (configuration not stated)
[9]
  IC50: 3.94 µM (active)
Perilipin-1/ABHD5
  IC50: 2.99 µM (active)

## O=C(O)COn1c(-c2ccc(Cl)cc2)nc2ccc(Cl)cc21
[10]
  IC50: > 100 µM (inactive)

## O=C(CCN1C(=O)/C(=C/c2ccccc2Cl)SC1=S)NC1CCS(=O)(=O)C1 (configuration not stated)
[11]
  IC50: > 50 µM (inactive)
[12]
  IC50: 5.22 µM (active)

## COc1ccc(N2C(=O)NC(=O)/C(=C\c3c[nH]c4ccccc34)C2=O)cc1
[11]
  IC50: > 50 µM (inactive)
[12]
  IC50: 23.7 µM (active)

## Cc1cc(C)n(C(=O)C23CC4CC(CC(C4)C2)C3)n1
[10]
  IC50: > 100 µM (inactive)

## COc1ccc2[nH]c(-c3ccccn3)nc2c1
Troponin, cardiac muscle
  EC50: > 71.5 µM (inactive)

## COc1ccc(/C=C2\CC/C(=C\c3ccc(OC)c(OC)c3)C2=O)cc1OC
[9]
  IC50: 5.24 µM (active)
Perilipin-1/ABHD5
  IC50: 5.6 µM (active)
